The values below come from the COVID Moonshot data (paper PMC11187573), “Identification of SARS-CoV-2 Mpro inhibitors through deep reinforcement learning for de novo drug design and computational chemistry approaches” (RSC Medicinal Chemistry, 2024).

In data set [1] the target is SARS-CoV-2 Main Protease (SARS-CoV-2) (UniProt P0DTD1).
The target is the same in data set [2]. The source holds these as a separate data set.
The target of the next data set is trypsin (UniProt P07477).
Chain of trypsin (P07477 whole entry, looked up): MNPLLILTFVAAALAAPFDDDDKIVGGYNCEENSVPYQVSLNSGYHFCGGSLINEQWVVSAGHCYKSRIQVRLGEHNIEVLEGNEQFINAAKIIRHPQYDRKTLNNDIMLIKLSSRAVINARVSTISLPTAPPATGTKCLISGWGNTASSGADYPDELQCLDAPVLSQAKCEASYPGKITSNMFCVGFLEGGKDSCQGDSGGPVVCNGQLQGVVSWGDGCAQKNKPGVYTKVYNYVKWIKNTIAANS

What is called inhibition is the change of the read-out against control, counted positive when it falls. In general, IC50 refers to the point on the concentration scale where inhibition reaches its midpoint. Take `C=CC(=O)N(c1ccc(C(C)(C)C)cc1)C(C(=O)Nc1ccc2c(c1)OCO2)c1cccnc1` (stereo unspecified): the inhibition in data set [1] (20.0 µM) was found to be 41.1%; in data set [1] (50.0 µM), 60.4%; in data set [2] (50.0 µM), 100%. Moreover, the half-maximal inhibitory concentration (IC50) in data set [2] was determined as 62.1 µM; against trypsin, 72.5 µM.

`COc1cc(CN2CCN(C(=O)CCl)CC2)c2ccccc2c1` displayed a relative solubility at 20 uM of 1 and a relative solubility at 100 uM of 0.95. Moreover, the inhibition in data set [1] (20.0 µM) was 82.8%. Besides, in data set [1] (50.0 µM), the inhibition came out at 90.9%. In data set [2], this molecule yielded an IC50 of 1.62 µM. The inhibition in data set [2] (50.0 µM) was 100%. Besides, the IC50 on trypsin was 81.7 µM.

In the case of `C=CC(=O)N(c1ccc(C2(C)CC2)cc1)C(C(=O)Nc1ccc(Br)cc1)c1cccnc1` (stereo unspecified), the relative solubility at 20 uM came to 1 and the relative solubility at 100 uM turned out to be 1.01. Besides, the inhibition in data set [1] (50.0 µM) amounted to 47.1%. The molecule also showed an IC50 in data set [2] of 19.4 µM. Besides, the inhibition in data set [2] (20.0 µM) was 2.51%. In data set [2] (50.0 µM), the inhibition amounted to 67.8%. At trypsin, this molecule came in with an IC50 of 58.2 µM.

Molecule `O=C(CCl)N1CCN(Cc2cc(Cl)ccc2CNC(=O)N2CCOCC2)CC1` showed a relative solubility at 20 uM of 0.98 and a relative solubility at 100 uM of 0.94. Also, the inhibition in data set [1] (20.0 µM) amounted to 77.2%. In data set [1] (50.0 µM), the inhibition stood at 79%. The IC50 in data set [2] was determined as 5.55 µM. Further, in data set [2] (50.0 µM), the inhibition worked out at 93.3%. At trypsin, this molecule had an IC50 of 15.8 µM.

`O=C(CCl)N1CCCc2cc(NCc3ccc(F)cc3Cl)ccc21` came in with a relative solubility at 20 uM of 0.81 and a relative solubility at 100 uM of 0.39. Also, the inhibition in data set [1] (20.0 µM) is 25.3%. Also, the inhibition in data set [1] (50.0 µM) turned out to be 52.5%. Besides, in data set [2] (20.0 µM), the inhibition is 47.9%. Besides, at trypsin, the IC50 was found to be 51.8 µM.

In the case of `NS(=O)(=O)c1ccc(N2CCC(c3ccco3)CC2)cc1`, the relative solubility at 20 uM amounted to 1 and the relative solubility at 100 uM was determined as 0.83. In addition, in data set [1] (20.0 µM), the inhibition stood at 5.4%. Moreover, in data set [1] (50.0 µM), the inhibition was determined as 8.47%. In addition, in data set [2] (20.0 µM), the inhibition came to 45.9%. Also, the inhibition in data set [2] (50.0 µM) is 38.9%.

`CC(C)c1ncncc1NC(=O)C(C)c1cccc(Cl)c1` (stereo unspecified) registered a relative solubility at 20 uM of 1.01 and a relative solubility at 100 uM of 1. The inhibition in data set [1] (20.0 µM) was 6.43%. Besides, the inhibition in data set [1] (50.0 µM) worked out at 19%. Besides, the inhibition in data set [2] (50.0 µM) is 1.6%.

For the molecule `O=C(C(F)Cl)N1CCCC(c2nc3ccccc3s2)C1` (stereo unspecified), the relative solubility at 20 uM is 0.99 and the relative solubility at 100 uM came out at 0.99. For the same molecule, the inhibition in data set [1] (20.0 µM) is 7.1%. The inhibition in data set [1] (50.0 µM) is 16.2%. Moreover, the inhibition in data set [2] (20.0 µM) was found to be 0%. Also, the inhibition in data set [2] (50.0 µM) came out at 0%.

`CC(=O)NCCc1c[nH]c2c(NCc3ccc4nc[nH]c4c3)cc(F)cc12` had a relative solubility at 20 uM of 0.64 and a relative solubility at 100 uM of 0.86. Further, the inhibition in data set [1] (20.0 µM) was -13.7%. Further, the inhibition in data set [1] (50.0 µM) is 12.1%. Besides, the inhibition in data set [2] (50.0 µM) is -4.42%.

Molecule `Cc1ccncc1NC(=O)Cc1cccc(I)c1` came in with a relative solubility at 20 uM of 1 and a relative solubility at 100 uM of 1. Moreover, the inhibition in data set [1] (20.0 µM) was 17.4%. In addition, the inhibition in data set [1] (50.0 µM) turned out to be 39.7%. Further, the IC50 in data set [2] worked out at 69.1 µM. The inhibition in data set [2] (50.0 µM) is 64.3%.

The molecule `C=CC(=O)N(c1ccc(C2(C)CC2)cc1)C(C(=O)Nc1ccc(Cl)cc1)c1cccnc1` (stereo unspecified) displayed a relative solubility at 20 uM of 0.95 and a relative solubility at 100 uM of 0.56. Also, the inhibition in data set [1] (50.0 µM) was -9.81%. In addition, the inhibition in data set [2] (20.0 µM) came to 0%. Besides, in data set [2] (50.0 µM), the inhibition was -0.67%.

In turn, `O=C1Nc2ccc(Br)cc2C1=O` had a relative solubility at 20 uM of 1 and a relative solubility at 100 uM of 0.99. Also, in data set [1] (20.0 µM), the inhibition is -2.12%. In data set [1] (50.0 µM), the inhibition is -1.05%. In addition, the IC50 in data set [2] stood at 30.3 µM. Further, the inhibition in data set [2] (50.0 µM) was found to be 66.1%.

`Cc1ccc(S(=O)(=O)NC2CCN(C(=O)CCl)CC2)cc1` came in with a relative solubility at 20 uM of 1 and a relative solubility at 100 uM of 1.01. Further, the inhibition in data set [1] (20.0 µM) is 25.1%. Further, in data set [1] (50.0 µM), the inhibition is 59.3%. This molecule also showed an IC50 in data set [2] of 18.5 µM. Also, in data set [2] (20.0 µM), the inhibition is 54.9%.

`O=C(Cc1c[nH]c2ncccc12)NCc1ccc(Cl)cn1` displayed a relative solubility at 20 uM of 1 and a relative solubility at 100 uM of 1. Further, the inhibition in data set [1] (20.0 µM) was 1.55%. For the same molecule, the inhibition in data set [1] (50.0 µM) is 4.16%. For the same molecule, in data set [2] (20.0 µM), the inhibition was determined as 0%.

The molecule `O=C(NCc1cccnc1)Nc1cccc(OCC(F)F)n1` had a relative solubility at 20 uM of 1 and a relative solubility at 100 uM of 1. Further, in data set [1] (20.0 µM), the inhibition turned out to be 3.33%. Besides, the inhibition in data set [1] (50.0 µM) is 8.28%. Besides, the inhibition in data set [2] (20.0 µM) was found to be 0%. The inhibition in data set [2] (50.0 µM) stood at 4.42%.

`N#Cc1ccccc1S(=O)(=O)N1CCN(C(=O)c2cc(=O)[nH]c3cc(F)ccc23)CC1`: the relative solubility at 20 uM was determined as 0.94 and the relative solubility at 100 uM is 0.95. In addition, the inhibition in data set [1] (20.0 µM) amounted to 1.1%. The inhibition in data set [1] (50.0 µM) was determined as 52.4%. Moreover, the inhibition in data set [2] (50.0 µM) amounted to 0%.

For `COc1ccc(N2CCN(C(=O)c3cc(=O)[nH]c4ccccc34)CC2)cc1`, the relative solubility at 20 uM came out at 1 and the relative solubility at 100 uM came out at 1. Also, the inhibition in data set [1] (20.0 µM) came to 61.4%. Besides, the inhibition in data set [1] (50.0 µM) is 81.7%. In addition, in data set [2], the IC50 came to 95.7 µM. In addition, in data set [2] (50.0 µM), the inhibition worked out at 51.4%.

With `C=CC(=O)N(c1ccc2ncsc2c1)C(C(=O)Nc1ccc(Cl)cc1)c1cccnc1` (stereo unspecified), the relative solubility at 20 uM was determined as 0.87 and the relative solubility at 100 uM was 0.69. Besides, the inhibition in data set [1] (20.0 µM) was 8.95%. For the same molecule, the inhibition in data set [1] (50.0 µM) stood at 25.3%. Further, in data set [2] (20.0 µM), the inhibition worked out at 2.57%.

Regarding `C=CC(=O)N(c1ccc(C(C)(C)C)cc1)C(C(=O)Nc1ccc2c(c1)OCCO2)c1cccnc1` (stereo unspecified), the relative solubility at 20 uM is 0.98 and the relative solubility at 100 uM came to 0.75. Also, in data set [1] (20.0 µM), the inhibition is 2.83%. The inhibition in data set [1] (50.0 µM) worked out at 18.1%. Further, the inhibition in data set [2] (20.0 µM) was 7.68%. For the same molecule, the inhibition in data set [2] (50.0 µM) worked out at 30.8%.

On to `C=CC(=O)N(c1ccc(C(C)(C)CC)cc1)C(C(=O)Nc1ccc(Br)cc1)c1cccnc1` (stereo unspecified), for which the relative solubility at 20 uM worked out at 0.91 and the relative solubility at 100 uM stood at 0.66. For the same molecule, the inhibition in data set [1] (20.0 µM) was 8.32%. The inhibition in data set [1] (50.0 µM) was 18.4%. The inhibition in data set [2] (20.0 µM) was found to be 0%.

In turn, `CN(C(=O)Cc1noc2ccccc12)c1ccc(NC(=O)OC(C)(C)C)cc1` gave a relative solubility at 20 uM of 0.98 and a relative solubility at 100 uM of 0.7. For the same molecule, the inhibition in data set [1] (20.0 µM) is -14.5%. The inhibition in data set [1] (50.0 µM) was -11.9%. Also, the inhibition in data set [2] (20.0 µM) turned out to be 0%.

`COc1ccc(C2CC(c3ccccc3)=NN2C(=O)CCl)cc1OC` (stereo unspecified) returned a relative solubility at 20 uM of 0.99 and a relative solubility at 100 uM of 0.85. Besides, the inhibition in data set [1] (20.0 µM) amounted to 100%. Moreover, the inhibition in data set [1] (50.0 µM) amounted to 99.6%. Further, the IC50 in data set [2] came out at 0.421 µM. The inhibition in data set [2] (50.0 µM) was 100%.

The molecule `Cc1ccncc1NC(=O)CC(C)C(C)C` (stereo unspecified) registered a relative solubility at 20 uM of 1 and a relative solubility at 100 uM of 1. Further, the inhibition in data set [1] (20.0 µM) is -5.58%. Further, the inhibition in data set [1] (50.0 µM) was found to be 29.2%. The inhibition in data set [2] (50.0 µM) came out at 6.99%.

Turning to `CNC(=O)OC1CCN(Cc2ccccc2)CC1`, the relative solubility at 20 uM came to 0.99 and the relative solubility at 100 uM came out at 1. In addition, in data set [1] (50.0 µM), the inhibition is 17.6%. For the same molecule, in data set [2] (20.0 µM), the inhibition came out at 0.824%. The inhibition in data set [2] (50.0 µM) amounted to 0%.

`CCOCC(=O)NCc1ccc(CNC(=O)Cn2nnc3ccccc32)cc1` displayed a relative solubility at 20 uM of 0.99 and a relative solubility at 100 uM of 1. For the same molecule, the inhibition in data set [1] (20.0 µM) came out at 1.82%. Further, the inhibition in data set [1] (50.0 µM) amounted to 1.31%. Also, in data set [2] (50.0 µM), the inhibition came out at 0%.
